Source: patent US20060122267A1, “Compositions and methods for attenuating mitochondria-mediated cell injury” (priority 2003, published 2006)

Legend:
mitochondrial complex I = target: T1, mitochondrial complex I (Rattus norvegicus, UniProt Q66HF1); assay: Complex I activity (rotenone-sensitive NADH/Co-Q1 oxidation/reduction) in NO donor-treated mitochondria; type: biochemical
T1 construct: Rat heart mitochondria were isolated using differential centrifugation; from tissue; host or cells: rat heart mitochondria (male Sprague-Dawley rats)
Description: Rat heart mitochondria were isolated using differential centrifugation (Tompkins, et al. (2005) Biochim. Biophys. Acta PMID: 16278076). Protein was determined by the Folin-phenol method (Lowry, et al. (1951) J. Bio. Chem. 193:265-75) against a standard curve constructed using bovine serum albumin. Mitochondrial incubations and all subsequent steps were performed in the dark. One mg of mitochondrial protein was suspended in 1 mL of mitochondrial respiration buffer (Tompkins, et al. (2005) supra) containing respiratory substrates glutamate (5 mM), malate (2.5 mM) and succinate (5 mM). […] Samples were centrifuged (5 minutes, 14,000×g), and supernatants removed. The pellets were then resuspended in 1 mL of respiration buffer, and centrifuged again. Pellets were frozen in liquid N2 for subsequent analysis. For ONOO^− treatments, 4 μL of 25 mM ONOO^− stock (100 μM final concentration) was added the cap of the reaction tube, the cap quickly closed and the tube shaken immediately. The process was then repeated twice at 30 second intervals, for a total of 3 additions. Mitochondria were then pelleted, washed, and frozen as for S-nitrosoglutathione samples. Complex I activity was assayed as the rotenone-sensitive oxidation of NADH, at 340 nm in the presence of coenzyme Q1 (Borutaite, et al. (2000) supra). […]

[1] = test system: isolated adult rat cardiomyocytes; assay: Cardiomyocyte model of ischemia-reperfusion injury, cell viability by Trypan blue exclusion; type: cell-based; conditions: for protection of cardiomyocyte viability from ischemia-reperfusion injury: 1 hour ischemia, 30 minutes reoxygenation
Description: Isolated adult rat cardiomyocytes were subjected to 1 hour ischemia (anoxic, glucose free medium, pH 6.5) followed by 30 minutes reoxygenation (labeled “HR”). Cell viability was assayed by Trypan blue exclusion. […] All data are means±SEM, N>3.
Adult rat cardiomyocytes were prepared by collagenase perfusion according to standard methods (Dai, et al. (2001) supra), yielding ˜4×10^6 cells per heart, >80% rod-shaped and viable. Incubations were in a shaking water bath at 37° C., each utilizing 5×10^5 cells in 5 mL of the KH buffers described below. For the control, cells were incubated for 2 hours in oxygenated KH buffer (95/5 O2/CO2). For ischemia-reperfusion treatment, cells were subjected to 30 minutes in oxygenated KH buffer, 1 hour in “ischemic” KH buffer (95/5 N2/CO2, pH 6.5, no glucose), and 30 minutes in oxygenated KH buffer. For the ischemia-reperfusion injury and test compound group of cells, ischemia-reperfusion injury was carried out as described above with test compound present during the 30 minute equilibration prior to ischemia-reperfusion and absent during ischemia. […] At the end of each protocol, cell viability was assayed (Trypan blue), and mitochondrial function determined (measurement of ΔΨm with the fluorescent probe TMRE, respiration with an O2 electrode, and S-nitrosothiol content by chemiluminescence and biotin-switch.

[2] = test system: isolated adult rat cardiomyocytes; assay: Mitochondrial H+ leak in cardiomyocytes (respiration divided by TMRE fluorescence) after ischemia-reperfusion; type: cell-based; conditions: doses that protect cardiomyocyte viability
Description: Cardiomyocyte respiration rate was measured with an oxygen electrode, and membrane potential with the fluorescent dye TMRE (20 nM) in a fluorimeter. H^+ leak is essentially the amount of work the respiratory chain must do to maintain a given membrane potential, and experimentally is derived by dividing respiration by TMRE fluoresence. […] All data are means±SEM, N>3.
Adult rat cardiomyocytes were prepared by collagenase perfusion according to standard methods (Dai, et al. (2001) supra), yielding ˜4×10^6 cells per heart, >80% rod-shaped and viable. Incubations were in a shaking water bath at 37° C., each utilizing 5×10^5 cells in 5 mL of the KH buffers described below. For the control, cells were incubated for 2 hours in oxygenated KH buffer (95/5 O2/CO2). For ischemia-reperfusion treatment, cells were subjected to 30 minutes in oxygenated KH buffer, 1 hour in “ischemic” KH buffer (95/5 N2/CO2, pH 6.5, no glucose), and 30 minutes in oxygenated KH buffer. […] At the end of each protocol, cell viability was assayed (Trypan blue), and mitochondrial function determined (measurement of ΔΨm with the fluorescent probe TMRE, respiration with an O2 electrode, and S-nitrosothiol content by chemiluminescence and biotin-switch.

T1 sequence (Q66HF1 24-727, one chain of several): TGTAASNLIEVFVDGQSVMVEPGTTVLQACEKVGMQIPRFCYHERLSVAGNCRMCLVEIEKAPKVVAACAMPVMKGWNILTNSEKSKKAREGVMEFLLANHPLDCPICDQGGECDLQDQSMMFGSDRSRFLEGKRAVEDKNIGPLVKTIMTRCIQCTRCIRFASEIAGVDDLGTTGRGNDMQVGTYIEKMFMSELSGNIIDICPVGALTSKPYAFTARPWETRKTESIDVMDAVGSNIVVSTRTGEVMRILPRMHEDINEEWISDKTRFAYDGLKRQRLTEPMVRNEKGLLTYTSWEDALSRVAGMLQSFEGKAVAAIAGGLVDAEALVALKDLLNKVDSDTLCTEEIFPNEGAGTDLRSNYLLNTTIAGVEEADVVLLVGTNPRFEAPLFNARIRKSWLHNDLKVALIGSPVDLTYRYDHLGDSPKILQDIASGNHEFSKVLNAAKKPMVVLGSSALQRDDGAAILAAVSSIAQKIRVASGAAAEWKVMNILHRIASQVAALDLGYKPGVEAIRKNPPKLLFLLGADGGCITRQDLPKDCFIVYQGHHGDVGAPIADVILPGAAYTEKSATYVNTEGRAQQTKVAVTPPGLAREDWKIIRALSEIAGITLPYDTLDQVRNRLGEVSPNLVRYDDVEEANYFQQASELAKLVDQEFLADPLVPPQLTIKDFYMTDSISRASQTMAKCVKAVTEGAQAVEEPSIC

N[C@@H](CCC(=O)N[C@@H](CSN=O)C(=O)NCC(=O)O)C(=O)O [S-nitrosoglutathione]
complex I inhibition (mitochondrial complex I; S-nitrosoglutathione treatment of mitochondria, exposure to light): complex I inhibition that was reversible by exposure of mitochondria to light
maximum complex I inhibition (mitochondrial complex I; dose response 10-500 μM): 20-25%
concentration required to achieve levels of protection comparable to 10-20 μM S-nitroso-2-mercaptopropylglycine [1]: 100 μM
protection of cardiomyocyte viability from ischemia-reperfusion injury ([1]; 10 μM): no protection
protection of cardiomyocyte viability from ischemia-reperfusion injury ([1]; 100 μM): significant protection
effect on increase in mitochondrial H+ leak induced by ischemia-reperfusion [2]: prevent large increases in H^+ leak
